Consider 12 molecules from PubChem BioAssay (NCI).

Values joined by “and” are separate entries in the source; they are usually repeats but may differ in a detail not shown here. Equal values may be shown once.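 Exposure lasted 48 hours, with cells grown in 96-well plates and compounds tested at five concentrations. GI50: concentration for 50% inhibition of growth. TGI: total growth inhibition.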

What all share (experiment): DTP human tumour cell line panel, 48 h
Assay [1] concerns HCC-2998 colon.
Assay [2] concerns HOP-92 NSCLC.
The subject of assay [3] is IGROV1 ovarian.
The subject of assay [4] is NCI-H226 lung.
For assay [5], the system named is NCI-H23 lung.
For assay [6], the system named is OVCAR-8 ovarian.
Assay [7] relates to RPMI-8226 leukemia.
The test system of assay [8] is RXF 393 renal.
Assay [9] has as its system SK-MEL-28 melanoma.
Assay [10] relates to UO-31 renal.

For the molecule `COC1C(N)C(OC2C(Oc3cccc4c(O)c5c(=O)oc6ccc(C)c7c(=O)oc(c34)c5c67)OC(C)C(O)C2(C)O)OC(C)C1O` (configuration not stated), the TGI came to 0.336 µM in assay [1]; 0.0653 µM in assay [2]; 0.132 µM in [3]; 0.169 µM in [4]; 0.249 µM in assay [5]; 0.212 µM in assay [6]. For the same molecule, the TGI in [7] came to 12.4 µM; in assay [8] it was 0.138 µM; in assay [9], 0.34 µM; in [10] it was 0.82 µM.
For `Cc1cccc2c3c(sc12)C(c1ccc(Cl)cc1)C(C#N)=C(N)O3` (configuration not stated), the GI50 was 0.67 µM in [1]; 1.32 µM in [2]; 0.426 µM in assay [3]; 0.763 µM in assay [4]; 0.436 µM in [5]; 0.471 µM in [6]. Further, the GI50 in assay [7] is 0.423 µM; in [8], 0.215 µM; in assay [9] it was 3.69 µM; in assay [10], 0.664 µM. Moreover, the TGI was 6.43 µM in [1]; 19 µM in assay [2]; 11.8 µM in assay [3]; 7.46 µM in assay [4]; 10.4 µM in assay [5]; 6.89 µM in assay [6]. Besides, the TGI came to 6.33 µM in [7], 0.649 µM in assay [8], 20.7 µM in assay [9] and 16.2 µM in assay [10].
For `COc1ccc(CCC2c3cc(OC)c(OC)cc3CCN2C)cc1OC` (configuration not stated), the TGI in assay [1], in assay [2], in [3], in assay [4], in assay [5] and in [6] was greater than 100 µM throughout. For the same molecule, the TGI in [7], in [8], in assay [9] and in [10] was greater than 100 µM throughout.
Turning to `C(=N/N(Cc1ccccc1)Cc1ccccc1)/c1ccccc1`, the GI50 in assay [1] was greater than 100 µM; in [2], 53.3 µM; in [3], greater than 100 µM; in assay [4], greater than 100 µM; in [5], 90.8 µM; in [6], greater than 100 µM. In addition, the GI50 in assay [7] was 51.8 µM; in [8], 66.3 µM; in assay [9], greater than 100 µM; in assay [10] it was greater than 100 µM. In addition, the TGI in assay [1], in assay [2], in [3], in assay [4], in assay [5] and in assay [6] was greater than 100 µM in each case. For the same molecule, the TGI in assay [7], in [8], in assay [9] and in assay [10] was greater than 100 µM in each case.
With `Oc1c(I)cc(I)c2cccnc12`, the GI50 in assay [1] is 2.44 µM; in [2] it was 8.48 µM; in [3], 4.24 µM; in assay [4] it was 4.51 µM; in assay [5] it was 2.19 µM; in assay [6], 3.35 µM. Moreover, the GI50 in assay [7] is 6.96 µM; in assay [8], 11.4 µM; in assay [9], 13.2 µM; in assay [10], 2.17 µM. Also, the concentration for total growth inhibition (TGI) in [1] was 7.34 µM; in [2], 83.3 µM; in [3] it was 30.8 µM; in [4] it was 29.2 µM; in assay [5], 9.52 µM; in [6] it was 47.1 µM. The TGI in assay [7] was greater than 100 µM; in assay [8], 29.8 µM; in assay [9], greater than 100 µM; in [10], 21.4 µM.
For `COC(=O)CCCCC(=O)c1c(C)[nH]c(/C=C2\N=C(c3ccc[nH]3)C=C2OC)c1C`, the GI50 in assay [1] was 1.96 µM; in [2], 0.414 µM; in [3], 1.22 µM; in [4], 1.17 µM; in [5], 1.46 µM; in assay [6] it was 0.451 µM. For the same molecule, the GI50 in assay [7] was 0.428 µM; in assay [8] it was 0.524 µM; in assay [9] it was 1.17 µM; in assay [10] it was 0.334 µM. The TGI in assay [1] is 4.19 µM; in assay [2] it was 1.5 µM; in [3], 2.57 µM; in [4], 2.87 µM; in [5], 3.6 µM; in assay [6] it was 1.76 µM. For the same molecule, the TGI worked out at 2.34 µM in [7], 2 µM in [8], 2.47 µM in assay [9] and 1.24 µM in assay [10].
In the case of `O=C(O)Cc1cccnc1`, the TGI in assay [1], in assay [2], in assay [3], in assay [4], in assay [5] and in assay [6] was greater than 100 µM in each case. In addition, the TGI in [7], in assay [8], in assay [9] and in [10] was greater than 100 µM each time.
With `COC(=O)[C@H]1CCCN1C(=O)[C@H]1CCCN1C(=O)[C@@H](Cc1c[nH]c2ccccc12)NC(=S)Nc1cc(C(F)(F)F)cc(C(F)(F)F)c1`, the GI50 is 1.82 µM in assay [1]; 1.2 µM in assay [2]; 1.88 µM in assay [3]; 3.08 µM in assay [4]; 2.07 µM in assay [5]; 1.98 µM in assay [6]. The GI50 is 2.34 µM in [7], 1.34 µM in assay [8], 2.07 µM in assay [9] and 2.16 µM in [10]. The TGI in assay [1] was found to be 3.3 µM; in assay [2], 3.22 µM; in [3], 4.16 µM; in assay [4], 11.7 µM; in assay [5], 4.68 µM; in [6] it was 3.94 µM. Moreover, the TGI is 6.38 µM in assay [7], 2.72 µM in assay [8], 4.17 µM in assay [9] and 6.31 µM in assay [10].
As for `CC(C)(Br)C(=O)C(Br)Br`, the TGI in assay [1] was 30.8 µM; in [2], 3.16 µM and 8.12 µM; in assay [3], 21.8 µM and 8.09 µM; in assay [4], 30.6 µM and 21.3 µM; in assay [5], 15.7 µM and 10.5 µM; in assay [6], 14.9 µM and 9.13 µM. Further, the TGI in assay [7] was 6.29 µM and 6.22 µM; in assay [8], 10 µM and 9.81 µM; in [9], 22.1 µM and 9.12 µM; in [10], 31.4 µM and 9.8 µM. The GI50 was 4 µM in [2]; 3.66 µM in assay [3]; 7.5 µM in assay [4]; 5.84 µM in assay [5]; 2.31 µM and 1.14 µM in assay [7]; 5.31 µM in assay [8]. Also, the GI50 is 4.93 µM in [9] and 5.5 µM in [10].
In the case of `COC1C(O)C(CO)OC(OC2C(O)COC(OC3C(C)OC(OC4C(O[C@H]5CC[C@@]6(C)C(CC=C7[C@H]6CCC68C(=O)O[C@@](C)(CCCC(C)C)[C@H]6[C@@H](OC(C)=O)C[C@@]78C)C5(C)C)OCC(OS(=O)(=O)O)C4O)C(OC4OCC(O)C(O)C4O)C3O)C2O)C1O` (some centres not stated), the concentration for 50% growth inhibition (GI50) in assay [1] is 0.13 µM; in assay [2], 0.0934 µM; in assay [3], 0.178 µM; in [4] it was 0.192 µM; in assay [5], 0.113 µM; in assay [6] it was 0.165 µM. For the same molecule, the GI50 in assay [7] is 0.163 µM; in assay [8] it was 0.184 µM; in assay [9], 0.495 µM; in assay [10] it was 0.2 µM. For the same molecule, the TGI in assay [1] was found to be 0.391 µM; in assay [2] it was 0.842 µM; in assay [3], 0.499 µM; in assay [4], 0.484 µM; in [5], 0.287 µM; in assay [6], 0.43 µM. Besides, the TGI was determined as 0.402 µM in [7], 0.66 µM in [8], 2.14 µM in [9] and 0.746 µM in assay [10].
Take `O=C(/C=C/c1cccc(O)c1)c1cccc(-n2cc(-c3ccccc3)[nH]c2=O)c1`: the GI50 was 8.27 µM in assay [1]; 3.57 µM in assay [2]; 3.24 µM in [3]; 8.48 µM in assay [4]; 3.64 µM in assay [5]; 2.86 µM in [6]. The GI50 in assay [7] is 2.16 µM; in [8] it was 1.83 µM; in assay [9], 8.07 µM; in assay [10] it was 1.99 µM. Besides, the TGI in [1] is 20.2 µM; in [2] it was 13.8 µM; in assay [3], 13.2 µM; in assay [4], 28.5 µM; in assay [5] it was 14.4 µM; in [6], 10.5 µM. Besides, the total growth inhibition concentration (TGI) in assay [7] came out at 6.33 µM; in assay [8] it was 3.51 µM; in assay [9], 20.6 µM; in assay [10] it was 7.02 µM.
With `Cc1cc(N=Nc2ccccc2C)ccc1N`, the GI50 was 22 µM in assay [1]; 7.41 µM in [2]; 5.1 µM in assay [3]; 10.3 µM in [4]; 16.5 µM in assay [5]; 20.7 µM in assay [6]. The GI50 in [7] is 1.69 µM; in assay [8], 15.1 µM; in [10], 0.874 µM. Further, the TGI in assay [1] was 24.9 µM and 53.5 µM; in assay [2] it was 25.1 µM and 26.8 µM; in [3] it was 48.3 µM and 20 µM; in assay [4] it was 30.8 µM and 27.8 µM; in [5], 14.7 µM and 42.3 µM; in [6], 34.6 µM and 96.4 µM. Moreover, the TGI in assay [7] was 34.5 µM; in assay [8] it was 22.9 µM and 33.7 µM; in [9], 44.3 µM; in assay [10] it was 13.2 µM and 11.3 µM.

Broadly, the TGI is the concentration at which net growth stops. Lower therefore signals greater sensitivity of the cells. A word on the GI50: it is the concentration giving 50% growth inhibition.
